Where two headings read alike, the source gives them in different places.
How the values were obtained:
[1] = test system: TNF-α; experiment: In vivo production of TNF-α in blood serum after i.v. administration to mice (data from patent RU 2154068)
Description: In this case the vertical axis represents the values for TNF-α concentrations (pg/mL) and the values for IL-6 concentrations (ng/mL). The horizontal axis represents (A and B) the values for injection dose of preparation OM174 (mg/kg) to mice. The vertical axis (C) represents the value for injection dose of LPS ([…]; positive control) and saline solution (0.85% NaCl solution; negative control) to mice.
The solid lines represent the lines of extrapolation for the values of doses for OM174: 0.20; 2.00; 2.01; 3.40 and 28.10 (A and B) and the values of doses for Westphal LPS E coli O:111B4: 0.002; 0.020; 0.200 and 2.000 (C).
According to data from patent RU 2154068, tri-acylated and tetra-acylated lipids A of E. coli, H. influenzae and P. aeruginosa are powerful inducers of mediator of endotoxin reaction—TNF-α. Table 1 represents data extrapolated from graphs on FIG. 1 (A, B, C) relating to in vivo TNF-α production in serum after i.v. administration of tri-acylated lipid A (3-acLA) of E. coli OM-174 and Westphal LPS E. coli O:111B4 to mice. Only 10-fold difference was detected for induction of TNF-α in vivo between E. coli OM-174 tri-acylated lipid A and commercially available endotoxin Westphal LPS E. coli O:111 B4, it is evidence that there is essential endotoxicity of E. coli tri-acetylated lipid A, excluding its use both as vaccine or vaccine component (adjuvant).

[2] = test system: TNF-α; details: mice, i.v., extrapolated from graphs of RU 2154068, cited from earlier work

SMILES: CCCCCCCCCCCC(=O)O[C@H](CCCCCCCCCCC)CC(=O)N[C@H]1[C@H](OC[C@H]2O[C@H](OP(=O)(O)O)[C@H](NC(=O)C[C@H](O)CCCCCCCCCCC)[C@@H](O)[C@@H]2O)O[C@H](CO)[C@@H](OP(=O)(O)O)[C@@H]1O [3-acLA E. coli - OM174]
- difference for induction of TNF-α in vivo versus Westphal LPS E. coli O:111 B4 [1]: 10 fold
- TNF-α concentration ([2]; dose 0.2 mg/kg): 328 pg/mL
- TNF-α concentration ([2]; dose 2.0 mg/kg): 1644 pg/mL
- TNF-α concentration ([2]; dose 2.01 mg/kg): 1416 pg/mL
- TNF-α concentration ([2]; dose 3.4 mg/kg): 2000 pg/mL
- TNF-α concentration ([2]; dose 28.1 mg/kg): 2750 pg/mL

From patent US11052142B2, “Modified endotoxic bacteria lipopolysaccharide (variants), combination of modified lipopolysaccharides (variants) and, containing same, a vaccine (variants) and a pharmaceutical composition (variants)” (priority 2013, dated 2021)
